The text below walks through data of patent publication US20020026053A1, “Novel 3-(substituted) -2- indolinones compounds and use thereof as inhibitors of protein kinase activity” (priority 1997, published 2002).

The assay has as its target T1, Met receptor (EGFR/Met chimeric cells, EMR) (Homo sapiens, UniProt P08581).
T1 construct: expressed in transfected cells; the other entry of the earlier key: EGFR (P00533, Epidermal growth factor receptor)
Description: Met Autophosphorylation Assay. It is filed as biochemical. In a few lines: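 Met phosphorylation was measured by capture ELISA. Lysates (90 μg/100 μl, HNTG plus 1 mM PMSF) from transiently transfected EGFR/Met chimera (EMR) cells were bound for 60 min at room temperature to wells holding rabbit anti-Met (C-28) on goat anti-rabbit coat. Phosphotyrosine was the read-out.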

T1 sequence (P08581 with tags, fused parts or gaps): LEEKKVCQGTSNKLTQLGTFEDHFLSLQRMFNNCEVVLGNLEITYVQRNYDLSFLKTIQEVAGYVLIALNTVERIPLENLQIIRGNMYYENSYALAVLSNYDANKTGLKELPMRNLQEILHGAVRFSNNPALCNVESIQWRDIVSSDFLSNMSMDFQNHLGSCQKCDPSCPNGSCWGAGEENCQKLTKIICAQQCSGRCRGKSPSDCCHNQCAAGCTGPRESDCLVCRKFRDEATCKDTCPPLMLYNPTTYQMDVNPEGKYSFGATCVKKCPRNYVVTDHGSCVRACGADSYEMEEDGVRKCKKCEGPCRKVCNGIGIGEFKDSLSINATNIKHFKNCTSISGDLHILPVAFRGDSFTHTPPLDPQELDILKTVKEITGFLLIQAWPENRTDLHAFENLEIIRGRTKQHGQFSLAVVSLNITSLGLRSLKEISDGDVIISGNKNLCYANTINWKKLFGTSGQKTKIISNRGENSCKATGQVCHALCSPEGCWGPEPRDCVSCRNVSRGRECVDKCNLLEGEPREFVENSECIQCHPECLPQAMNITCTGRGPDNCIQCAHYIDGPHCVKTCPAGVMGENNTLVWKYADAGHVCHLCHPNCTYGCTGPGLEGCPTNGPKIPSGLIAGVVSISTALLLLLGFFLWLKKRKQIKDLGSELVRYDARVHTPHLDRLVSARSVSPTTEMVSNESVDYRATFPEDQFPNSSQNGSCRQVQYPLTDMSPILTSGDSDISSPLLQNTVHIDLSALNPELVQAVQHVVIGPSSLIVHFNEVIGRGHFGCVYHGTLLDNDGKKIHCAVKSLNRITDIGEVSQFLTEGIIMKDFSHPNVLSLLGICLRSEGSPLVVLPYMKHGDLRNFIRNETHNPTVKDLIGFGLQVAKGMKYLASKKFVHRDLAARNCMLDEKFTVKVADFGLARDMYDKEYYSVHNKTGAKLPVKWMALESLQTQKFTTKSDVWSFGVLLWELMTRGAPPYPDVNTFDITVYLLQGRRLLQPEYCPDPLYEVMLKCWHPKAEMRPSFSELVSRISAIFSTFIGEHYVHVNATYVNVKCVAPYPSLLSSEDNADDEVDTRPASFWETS

For the molecule `N#Cc1ccccc1C=C1C(=O)Nc2ccc(S(=O)(=O)N3CCOCC3)cc21` [10735/F07], the “Met Kinase % Inhibition (P.130)” value was 39.7%. Consider `O=C1Nc2ccc(S(=O)(=O)N3CCOCC3)cc2C1=Cc1c(F)cccc1F` [10735/F08], for which the “Met Kinase % Inhibition (P.130)” value is on record as 18.5%. `O=C1Nc2ccc(S(=O)(=O)N3CCOCC3)cc2C1=Cc1cccc2ccccc12` [10735/F09]: the “Met Kinase % Inhibition (P.130)” value was 7.0%. With `O=C1Nc2ccc(S(=O)(=O)N3CCOCC3)cc2C1=Cc1ccc(Cl)cc1Cl` [10735/F10], the “Met Kinase % Inhibition (P.130)” value is recorded as 13.0%.

Consider `O=C1Nc2ccc(S(=O)(=O)N3CCOCC3)cc2C1=Cc1ccc(-c2ccccc2)cc1` [10735/F11], for which the “Met Kinase % Inhibition (P.130)” value is 16.6%. For the molecule `Cc1ccccc1C=C1C(=O)Nc2ccc(CCCl)cc21` [10735/G02], the “Met Kinase % Inhibition (P.130)” value is given as 26.0%. Turning to `O=C1Nc2ccc(CCCl)cc2C1=Cc1ccc(F)c(F)c1` [10735/G03], the “Met Kinase % Inhibition (P.130)” value came out at 24.3%. Turning to `O=C1Nc2ccc(CCCl)cc2C1=Cc1cc(F)cc(F)c1` [10735/G04], the “Met Kinase % Inhibition (P.130)” value was 28.8%. `O=C1Nc2ccc(CCCl)cc2C1=Cc1cccc(C(F)(F)F)c1` [10735/G05]: the “Met Kinase % Inhibition (P.130)” value worked out at 22.2%. With `O=C1Nc2ccc(CCCl)cc2C1=Cc1cc(C(F)(F)F)cc(C(F)(F)F)c1` [10735/G06], the “Met Kinase % Inhibition (P.130)” value came out at 36.1%.
